One assay concerns Lewis Lung Carcinoma. Nature of the assay: Antimetastatic activity against Lewis Lung Carcinoma (spontaneous metastases) (Table III). The following applies: 5 mg/kg oral, every other day, 20 to 21 days. Type of assay: in vivo, mice (female, C57B1/6). Here is the method: Mice (female, C57B1/6, 16-18 g) were inoculated subcutaneously between the inguinal and axillary areas with 0.2 ml of a freshly prepared tumor brei. Control mice were treated with vehicle. Other mice were treated orally with test compound in suspension in 0.5% carboxymethylcellulose (CMC). Treatments were initiated one day after tumor implanation, and continued every other day throughout the experiment. 20 to 21 days after implantation of the tumor, mice were sacrificed, the primary tumor was weighed, and the number of lung metastases was determined by counting under a dissecting microscope.

Assay [1] has as its target T1, Human platelet cyclic AMP phosphodiesterase (Homo sapiens, UniProt Q14432).
T1 construct: from tissue; host or cells: human platelets from donors, soluble fraction after freeze-thaw and hypotonic lysis
In words: Cyclic AMP phosphodiesterase assay, human platelet enzyme (Table I). Type of assay: biochemical. The following applies: for IC50: 1 μM cyclic AMP as substrate, soluble enzyme from human platelets, read-out: Human Platelet IC50 (inhibition of cyclic AMP phosphodiesterase); for Relative Potency: relative to theophylline, which is assigned a value of 1 on human platelet phosphodiesterase. As for the experimental part: (§1) The inhibition of cyclic AMP phosphodiesterase activity by the subject compounds was assayed by the method of Filburn and Karn, Analyt. Biochem., 52: 505-516 (1973), using 1 μM cyclic AMP as the substrate. Human platelet cyclic AMP phosphodiesterase was obtained from human donors. Platelets were isolated and washed by centrifugation, the membranes ruptured by a sequential freeze-thaw procedure and hypotonic lysis and the soluble enzyme isolated by high speed centrifugation. The enzyme was stored in aliquots at -20° C.
(§2) This table contains the IC50 values for human platelet phosphodiesterase and IC25 values for rat heart phosphodiesterase.

In a further assay the test system is Mongrel dogs. In words: Inotropic activity in anesthetized mongrel dogs (Table II). Type of assay: in vivo, dog. As to conditions: 1 mg/kg i.v., suspended in carboxymethylcellulose, vagotomized dogs. Here is the method:
Mongrel dogs were anesthetized intravenously with 35 mg/kg sodium pentobarbital and supplemented as needed. Blood pressure was measured with a Statham pressure transducer via a cannula inserted from a femoral artery into the abdominal aorta. Heart rate was recorded by a cardiotachometer from a lead II electrocardiogram. Right ventricular contractile force was recorded from a Walton-Brodie strain gauge sutured to the right ventricle following a midsternal thoracotomy. A Harvard respirator was used to ventilate the dogs with room air through an endotracheal tube. Each dog was bilaterally vagotomized. Following a midline laparotomy, a cannula was sutured into the duodenum for intraduodenal administration of test compound. A femoral vein was cannulated for administration of isoproterenol. All data were recorded on a Beckman R611 Dynograph.
To assess the responsiveness of each dog, isoproterenol was given intravenously at half-log interval doses from 0.007 to 6.67 μg/kg. The test compound was then administered intravenously at 1 mg/kg.

In a further assay the test system is Soluble rat heart PDE. In words: Cyclic AMP phosphodiesterase inhibition, soluble rat heart PDE (Table I). Type of assay: biochemical. As to conditions: soluble rat heart PDE (footnote b). Here is the method:
as §1, §2
^b Soluble rat heart PDE

The test system of another assay is Soluble dog heart PDE. Nature of the assay: Cyclic AMP phosphodiesterase inhibition, soluble dog heart PDE (Table I). Type of assay: biochemical. As to conditions: soluble dog heart PDE (footnote a). As for the experimental part:
as §1, §2
^a Soluble dog heart PDE

T1 sequence (Q14432 whole entry): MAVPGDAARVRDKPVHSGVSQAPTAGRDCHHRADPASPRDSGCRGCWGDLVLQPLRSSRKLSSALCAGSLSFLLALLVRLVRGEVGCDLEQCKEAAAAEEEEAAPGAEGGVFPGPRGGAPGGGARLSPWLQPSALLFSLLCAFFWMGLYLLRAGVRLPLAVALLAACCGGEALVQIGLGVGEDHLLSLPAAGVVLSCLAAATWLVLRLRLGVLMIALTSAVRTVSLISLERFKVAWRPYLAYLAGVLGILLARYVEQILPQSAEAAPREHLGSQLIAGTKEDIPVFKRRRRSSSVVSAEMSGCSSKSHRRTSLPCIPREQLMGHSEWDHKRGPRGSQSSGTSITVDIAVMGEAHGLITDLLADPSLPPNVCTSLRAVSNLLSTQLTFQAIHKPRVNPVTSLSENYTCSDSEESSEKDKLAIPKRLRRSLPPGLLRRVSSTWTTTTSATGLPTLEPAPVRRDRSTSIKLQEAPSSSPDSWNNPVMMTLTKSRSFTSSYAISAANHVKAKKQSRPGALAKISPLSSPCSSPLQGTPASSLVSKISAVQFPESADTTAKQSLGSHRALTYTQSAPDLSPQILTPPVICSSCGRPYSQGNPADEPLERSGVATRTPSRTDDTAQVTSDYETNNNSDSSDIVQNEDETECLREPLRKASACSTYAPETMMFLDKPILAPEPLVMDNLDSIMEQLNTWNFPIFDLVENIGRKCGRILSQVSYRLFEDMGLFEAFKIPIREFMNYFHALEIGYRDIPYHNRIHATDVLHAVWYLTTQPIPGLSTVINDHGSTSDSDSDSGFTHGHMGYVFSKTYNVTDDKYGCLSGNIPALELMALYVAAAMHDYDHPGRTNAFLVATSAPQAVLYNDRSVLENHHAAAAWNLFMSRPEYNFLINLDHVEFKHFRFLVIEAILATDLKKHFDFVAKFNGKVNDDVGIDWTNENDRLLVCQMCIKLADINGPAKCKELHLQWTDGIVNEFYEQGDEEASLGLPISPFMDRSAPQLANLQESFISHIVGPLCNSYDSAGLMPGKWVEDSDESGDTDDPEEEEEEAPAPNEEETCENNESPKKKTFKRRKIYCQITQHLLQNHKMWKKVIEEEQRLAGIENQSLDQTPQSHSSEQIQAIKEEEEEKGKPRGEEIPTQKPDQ

Regarding `O=C(O)CN(C(=O)CCCOc1ccc2c(c1)CN1CC(=O)NC1=N2)C1CCCCC1` [2-(N-cyclohexyl-4-(2-oxo-1,2,3,5-tetrahydroimidazo[2,1-b]quinazolin-7-yl)oxybutyramidyl)acetic acid], the “Number of Pulmonary Metastases, Range” value in the assay with Lewis Lung Carcinoma (control range 0-29) was 0-11. For the same compound, in the assay on Lewis Lung Carcinoma (p < 0.05, control median 5), the “Number of Pulmonary Metastases, Median” value came to 0. Besides, in assay [1], the half-maximal inhibitory concentration (IC50) came out at 0.005 µM and the “Relative Potency” value is 54,000. Also, in the assay with Mongrel dogs, the “Blood Pressure, peak effect” value is given as 32 % of Max. Isoproterenol; the “Heart Rate, peak effect” value is 30 % of Max. Isoproterenol; the “Rt. Ventricular Contractile Force, peak effect” value is reported as 33 % of Max. Isoproterenol. Besides, the “Heart IC25 (inhibition of cyclic AMP phosphodiesterase), soluble rat heart PDE” value in the assay with Soluble rat heart PDE came out at 0.1 µM.
`COC(=O)CN(C(=O)CCCOc1ccc2c(c1)CN1CC(=O)NC1=N2)C1CCCCC1` [Methyl 2-(N-cyclohexyl-4-(2-oxo-1,2,3,5-tetrahydroimidazo[2,1-b]quinazolin-7-yl)oxybutyramidyl)acetate]: in assay [1], the concentration for half-maximal inhibition (IC50) came out at 0.002 µM and the “Relative Potency” value is recorded as 135,000. In the assay on Soluble dog heart PDE, the “Heart IC25 (inhibition of cyclic AMP phosphodiesterase), soluble dog heart PDE” value is 0.01 µM.
`NC(=O)CN(C(=O)CCCOc1ccc2c(c1)CN1CC(=O)NC1=N2)C1CCCCC1` [2-(N-cyclohexyl-4-(2-oxo-1,2,3,5-tetrahydroimidazo[2,1-b]quinazolin-7-yl)oxybutyramidyl)acetamide]: in assay [1], the IC50 is 0.011 µM and the “Relative Potency” value is listed as 24,500. Moreover, the “Heart IC25 (inhibition of cyclic AMP phosphodiesterase), soluble dog heart PDE” value in the assay with Soluble dog heart PDE is 0.1 µM.
